Activity calls are given as the source filed them. No cut-off for these calls is given here.
Tests used:
[1] = test system: Mycobacterium tuberculosis; test: Growth inhibition of Mycobacterium tuberculosis H37Rv at 0.05 ug/mL after 21 days; type: functional, organism-based
[2] = biological target: T1, Arylamine N-acetyltransferase (Mycolicibacterium smegmatis, UniProt O86309); test: Inhibition of Mycobacterium smegmatis recombinant NAT expressed in Escherichia coli BL21 at 0.5 mg/mL
T1 sequence (O86309 whole entry): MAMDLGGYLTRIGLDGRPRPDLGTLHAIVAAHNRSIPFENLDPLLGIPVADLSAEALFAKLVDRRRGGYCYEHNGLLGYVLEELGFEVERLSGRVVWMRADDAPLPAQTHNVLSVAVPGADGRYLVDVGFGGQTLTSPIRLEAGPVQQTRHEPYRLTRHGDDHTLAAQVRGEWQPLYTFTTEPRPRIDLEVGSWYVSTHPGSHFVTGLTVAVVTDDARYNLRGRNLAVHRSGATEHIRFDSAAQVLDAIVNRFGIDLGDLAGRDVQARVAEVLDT

SMILES | Activity [1] | inhibition at 500 µg/mL [2] [%]
NNC(=O)c1ccncc1 | Active | 
CC(=O)O[C@@H]1C=C2C(=O)O[C@@H](O)[C@]2(O)[C@@]2(C)CCCC(C)(C)[C@H]12 |  | 35

From ChEMBL document CHEMBL1139202, “Inhibition of mycobacterial arylamine N-acetyltransferase contributes to anti-mycobacterial activity of Warburgia salutaris” (Bioorg Med Chem, 2007)
